Here are results for six molecules from patent US6632665B1, “Human gene encoding 3′-5′ exonuclease” (Wake Forest University, priority 1999, dated 2003).

The subject of series [1] is HL-60 cells. Kind of series: araC incorporation into DNA and total DNA synthesis in 6-MP pretreated HL-60 cells. It counts as cell-based. Here is the method: (§1) HL-60 cells were incubated with 6-mercaptopurine (6-MP) to allow intracellular levels of thioinosine monophosphate (TIMP) to accumulate. […] Cytoplasmic 6-MP is converted to an active nucleotide metabolite TIMP by the action of hypoxanthine phosphoribosyltransferase (HPRT). […] Intracellular accumulation of TIMP was determined by HPLC [Zimm, et al., Cancer Res. 45:4156-4161 (1985)]. Upon addition of araC, the amount of araC incorporated into DNA increased and total DNA synthesis decreased in cells pretreated with 6-MP relative to untreated cells. At peak intracellular levels of TIMP, araC incorporation into DNA relative to total DNA synthesis was 20-fold greater in the 6-MP treated cells.
(§2) Logarithmically growing cultures of HL-60 cells are incubated with 6-MP for varying times. The cultures are divided into two groups. The first group is treated with 1 μM ^3H-araC for 1 hour to measure araC in DNA. The second group is treated with ^3H-thymidine and 1 μM unlabeled araC for 1 hour to measure total DNA synthesis. Cells are pelleted, washed with PBS, and ^3H-araC or ^3H-thymidine in acid insoluble material is determined by scintillation counting. To measure araCTP in HL-60 cells, 6-MP treated samples are incubated with 1 μM ^3H-araC. Cells are pelleted and washed with PBS. The acid soluble nucleotides are collected and separated by HPLC (Partisil 10 SAX, Whatman). The fraction containing ^3HaraCTP is quantified by scintillation counting.

The test system of series [2] is HL-60 cells. As to the kind of experiment: cell killing by growth curves and clonogenic assays of treated cells. It counts as cell-based. Particulars: 6-MP pretreatment plus araC.
The test system of series [3] is HL-60 cells. As to the kind of experiment: intracellular accumulation of TIMP by HPLC. It counts as cell-based. Conditions: HL-60 cells pretreated with 50 or 100 μM 6-MP. The method, then: as §1
In series [4] the test system is HL-60 cells. Kind of series: intracellular araCTP quantified by HPLC in 6-MP treated cells. Conditions: cells treated with 6-MP up to twelve hours, harvested one hour after addition of araC. It is filed as cell-based. The method, then: The increased incorporation of araC into the DNA was not the result of increased accumulation of araC in the 6-MP treated cells. Cells were treated with 6-MP for varying times for up to twelve hours followed by incubation with […]. At time points up to twelve hours, cells were treated with araC and harvested one hour after addition of araC. The nucleotides were then separated using HPLC, and intracellular araCTP was quantified.
as §2

Another series relates to murine leukemia cells. Conditions: murine leukemia cells treated for twelve hours with 6-MP; cited from earlier work.
Series [5] has as its system 30 kDa enzyme with 3'-5' exonuclease activity. Kind of series: removal of 3' terminal araC from template primer by the 30 kDa exonuclease. It counts as biochemical, human, bovine. Conditions: araC at the 3' terminus of the template primer. From the text: For protein purification from bovine thymus, an additional step using phenyl SUPEROSE was employed. In order to detect exonuclease activity in the cell extract, a biochemical assay was developed using DNA polymerase a and an oligonucleotide template primer with an araC analog at the 3′ terminus. In this assay, incorporation of radiolabeled nucleotides into the araC-template primer by the polymerase first requires that the araC analog be removed by a 3′-5′ exonuclease.

The target of another series is T1, 30 kDa exonuclease (Homo sapiens, UniProt Q9NSU2).
T1 construct: endogenous in cells; host or cells: human myeloblastic leukemia cells (myeloblasts)
T1 sequence (Q9NSU2 1-314): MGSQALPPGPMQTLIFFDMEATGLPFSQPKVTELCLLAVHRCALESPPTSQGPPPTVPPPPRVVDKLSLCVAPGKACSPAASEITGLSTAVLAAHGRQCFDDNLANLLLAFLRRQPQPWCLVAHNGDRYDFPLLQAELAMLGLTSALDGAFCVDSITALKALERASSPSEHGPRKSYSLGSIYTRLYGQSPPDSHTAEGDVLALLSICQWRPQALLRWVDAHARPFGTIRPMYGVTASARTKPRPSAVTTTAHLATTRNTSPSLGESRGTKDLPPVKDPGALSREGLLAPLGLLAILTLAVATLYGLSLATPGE
As to the kind of experiment: in vitro enzyme inhibition of the 30 kDa 3'-5' exonuclease. Conditions: 30 kDa exonuclease purified from myeloblastic leukemia cells. It counts as biochemical. The method, then: In order to assess the effect of intracellular TIMP that contributed to increased araC incorporation, exonuclease activity was partially purified from myeloblastic leukemia cells and in vitro enzyme inhibition studies ware carried out with TIMP. The majority of the cellular exonuclease activity was found in a band migrating on SDS-PAGE with a predicted molecular weight of 30 kDa.
Inhibition studies were also carried out with the purified 30 kD exonuclease and either TIMP or dGMP.
Useful methods in the practice of this example include the following: DNA pol δ may be purified from human myeloblasts using the methods of Syvaoja et al. (Proc. Natl. Acad. Sci., USA 87:6664-6668, 1990) through step 5. The specific activity of the DNA pol δ preparation is preferably about 3,500 units/mg. A unit of DNA pol δ catalyzes the incorporation of 1 nmol of total nucleotide per hour at 37° C. using 100 μM poly(dAdT) as template and reaction conditions as described by Lewis et al. (Biochemistry 33:14620-14624, 1994). […]
To measure the 3′-5′ exonuclease activity, a 23 mer is labeled with ^32P at the 5′ position and used in reactions as ssDNA. […] Samples are dried, resuspended in 5 μl 95% formamide, and analyzed by electrophoresis through 15% polyacrylamide sequencing gels. Radiolabeled bands are visualized and quantified by phosphorimagery (Molecular Dynamics). […]

In series [6] the test system is exonuclease activity specifically associated with DNA polymerase δ. Conditions: Lee, et al. Biochemistry 19:215-219 (1980); cited from earlier work.
For series [7], the system named is 32P-labeled 23 nucleotide oligomer. Kind of series: exonuclease activity of protein extracts of transformed BL21/DE3 cells. It is filed as biochemical. Particulars: protein extract of BL21/DE3 cells, IPTG induced. The method, then: To measure the 3′-5′ exonuclease activity, a 23 mer is labeled with ^32P at the 5′ position and used in reactions as ssDNA. Reaction mixtures (10 μl) are prepared containing 20 mM Tris-HCl, pH 7.5, 10 mM MgCl2, 2 mM DTT, 100 μg/mL BSA, 100 nM 23 mer, and 1 μl of the appropriate enzyme dilution. Incubation is 20 minutes at 37° C., and reactions are stopped by addition of 30 μl 95% ethanol. Samples are dried, resuspended in 5 μl 95% formamide, and analyzed by electrophoresis through 15% polyacrylamide sequencing gels. Radiolabeled bands are visualized and quantified by phosphorimagery (Molecular Dynamics). One unit of exonuclease is the amount of enzyme needed to degrade 1 pmol of 3′ termini in 1 min at 37° C.
The pTREX1h/T7 plasmid was electroporated into BL21/DE3 cells, which were grown at 23° C. to a density of OD595 0.3. Isopropylthiogalactopyranoside (IPTG) was added to induce overexpression and incubation of the cells was continued overnight. Protein extracts were prepared from the cells and enzyme activity assayed using a ^32P-labeled 23 nucleotide oligomer.
Template DNA was the mouse EST 480859. PCR was carried out as described for TREX1h and the resulting amplification product was subcloned as for TREX1h. The resulting expression plasmid was designated pTREX2m/T7 and expression of the encoded gene was carried out as described for TREX1h. […]

[8] abbreviates: HL-60 cells pretreated with 6-MP relative to untreated cells, upon addition of araC.

In the case of `Sc1ncnc2nc[nH]c12` [6-MP, 6-mercaptopurine], in the series with HL-60 cells [1] (setting [8]), the “amount of araC incorporated into DNA” value was “increased” and the “total DNA synthesis” value is listed as “decreased”. For the same molecule, the “araC incorporation into DNA relative to total DNA synthesis, 6-MP treated vs untreated cells” value with HL-60 cells [1] (HL-60 cells pretreated with 6-MP, at peak intracellular levels of TIMP, then araC) was 20 fold. Also, the cell killing entry with HL-60 cells [2] is “increase in cell killing”. For the same molecule, the “time of peak intracellular TIMP concentration” value in the series on HL-60 cells [3] was “approximately twelve”. Moreover, the “variation of intracellular araCTP levels during the time course” value in the series with HL-60 cells [4] was “less than two-fold”. Moreover, the “intracellular level of TIMP” value in the series on murine leukemia cells is given as “approximately 180 μM”.
In the case of `Nc1ccn([C@@H]2O[C@H](CO)[C@@H](O)[C@@H]2O)c(=O)n1` [araC, 1-β-D-arabinofuranosylcytosine], in series [5], the “apparent rate of araC removal by the exonuclease” value was “approximately the same rate as the rate of deoxynucleotide monophosphate removal”.
What is called Ki is the dissociation constant of the complex between target and ligand, obtained from inhibition or displacement. With `Nc1nc2c(ncn2[C@H]2C[C@H](O)[C@@H](COP(=O)(O)O)O2)c(=O)[nH]1` [dGMP], at 30 kDa exonuclease, the affinity corresponds to a Ki of 56 µM.
Consider `O=P(O)(O)OC[C@H]1O[C@@H](n2cnc3c(S)ncnc32)[C@H](O)[C@@H]1O` [TIMP, thioinosine monophosphate], for which the Ki at 30 kDa exonuclease was 17 µM. Further, the “inhibition of DNA polymerase δ associated exonuclease activity” value in series [6] is listed as “inhibit exonuclease activity”.

B1: TREX2m: murine 3'-5' exonuclease polypeptide, SEQ ID NO:32, expressed from pTREX2m/T7 (protein, listed as Mus musculus)
chain: MSEPPRAETFVFLDLEATGLPNMDPEIAEISLFAVHRSSLENPERDDSGSLVLPRVLDKLTLCMCPERPFTAKASEITGLSSESLMHCGKAGFNGAVVRTLQGFLSRQEGPICLVAHNGFDYDFPLLCTELQRLGAHLPQDTVCLDTLPALRGLDRAHSHGTRAQGRKSYSLASLFHRYFQAEPSAAHSAEGDVHTLLLIFLHRAPELLAWADEQARSWAHIEPMYVPPDGPSLEA
As for B1, the “exonuclease activity versus control cells with parental vector only” value in series [7] is listed as 30 fold.

B2: TREX1h: human 3'-5' exonuclease polypeptide, SEQ ID NO:2, expressed from pTREX1h/T7 (protein)
chain: MGSQALPPGPMQTLIFFDMEATGLPFSQPKVTELCLLAVHRCALESPPTSQGPPPTVPPPPRVVDKLSLCVAPGKACSPAASEITGLSTAVLAAHGRQCFDDNLANLLLAFLRRQPQPWCLVAHNGDRYDFPLLQAELAMLGLTSALDGAFCVDSITALKALERASSPSEHGPRKSYSLGSIYTRLYGQSPPDSHTAEGDVLALLSICQWRPQALLRWVDAHARPFGTIRPMYGVTASARTKPRPSAVTTTAHLATTRNTSPSLGESRGTKDLPPVKDPGALSREGLLAPLGLLAILTLAVATLYGLSLATPGE
modifications: HOMO SAPIENS
B2: the “exonuclease activity versus control cells with parental vector only” value in [7] was found to be 30 fold.
